We go through 3 compounds from PMC7736868, “Fluorescent ligands for dopamine D2/D3 receptors” (Scientific Reports, 2020).

SMILES strings stand for the structures.

The target in test [1] is T1, secNluc-D3R (UniProt P35462+Q9GV45, A31E/A60N/A81I/F95D/I117V/K70R/L54V/L99Q/M102K/N193R/P142E/Q151K/Q38R/Q45L/V71I/Y165I). Put plainly: Live-cell NanoBRET saturation binding, HEK293T cells. As to the method: Figure 5 NanoBRET saturation curves for the fluorescent ligands 10a-c. Saturation binding experiments were performed with live HEK293T cells expressing secNluc-D3R and the fluorescent ligands 10a, 10b and 10c, comprising a trifluorethyl-rhodamine derivative, a Cy3B and an Alexa488 fluorophore, respectively. […] Data points show mean ± SEM of one representative out of n = 5 (for 10a) or n = 4 (for 10b,c) experiments, with each condition carried out in triplicate. The netBRET signal was calculated as the difference between total BRET and the signal obtained in the absence of a fluorescent ligand.
For whole cell NanoBRET saturation assays, HEK293T cells were transfected with secNluc-D3R employing Mirus TransIT-293 (3:1 reagent to DNA ratio). After 24 h at 37 °C, 5% CO2, cells were detached using Versene and transferred to white, F-bottom 384-well plates at a density of 2,500 cells/well and incubated for another 24 h at 37 °C, 5% CO2. Cells were washed with PBS and incubated for 30 min at 37 °C with 5% FBS in DMEM without phenol red, before the fluorescent ligands (5 µL, diluted into DMEM without phenol red with 5% FBS from a 1 mM DMSO-stock) were added. […] After 1 h incubation with the ligands at 37 °C, furimazine (Promega, final dilution 1:500 to 1:2,500) was added, followed by a 5 min incubation at room temperature in the dark. BRET was measured as the ratio of acceptor fluorescence and donor luminescence employing a CLARIOstar microplate reader equipped with 475/30 nm and 535/30 or 580/30 emission filters, respectively. Total, non-specific and specific binding were analyzed employing the algorithms for one-site saturation binding implemented in PRISM6.0 or 8.0.

Test [2] has as its target T1, secNluc-D3R. The experiment in a line: Membrane-based NanoBRET saturation binding. The conditions noted are these: membranes from HEK293T cells expressing secNluc-D3R; KD ± SEM. Here is the method:
. After addition of furimazine (1:5,000, final volume 35 µL), and 5 min incubation at room temperature in the dark, BRET readings were obtained using a CLARIOstar plate reader equipped with a 475/30 nm donor together with a 535/30 nm (for 10a) or 620/30 nm (for 10b) acceptor emission filter. […]. Kinetic assays were monitored at room temperature and minimal possible cycle time of the CLARIOstar was used for each measurement. Data was fitted to one phase association and dissociation equations in PRISM6.0 to determine the kinetic constants. In competition binding experiments, membranes were incubated with serial dilutions of unlabeled ligands and the fluorescent ligand 10a (10 or 100 nM) for 90 min at 37 °C. Addition of furimazine (1:5,000) and BRET measurements were carried out as described above. Data analysis was performed using the one site—fit Ki equation in PRISM6.0 to determine the inhibition constants (Ki) of the unlabeled ligands.
Supplementary Fig. 4. NanoBRET saturation curves obtained with ligands 10a,b and membranes from HEK293T expressing secNluc- D3R. […]
calculated as the difference between total and non- specific binding . BRET was measured after 90 min incubation at 37 °C and represents mean ± SD of an individual representative out of 3 – 4 independent experiments, with each condition in triplicate. […]
On the technique in general: Bioluminescence resonance energy transfer reports proximity on the nanometre scale.

Setting [3] is: read-out: KD NanoBRET saturation; live HEK293T cells expressing secNluc-D3R; KD ± SEM.

T1 sequence (Q9GV45+P35462 fused with the stated changes): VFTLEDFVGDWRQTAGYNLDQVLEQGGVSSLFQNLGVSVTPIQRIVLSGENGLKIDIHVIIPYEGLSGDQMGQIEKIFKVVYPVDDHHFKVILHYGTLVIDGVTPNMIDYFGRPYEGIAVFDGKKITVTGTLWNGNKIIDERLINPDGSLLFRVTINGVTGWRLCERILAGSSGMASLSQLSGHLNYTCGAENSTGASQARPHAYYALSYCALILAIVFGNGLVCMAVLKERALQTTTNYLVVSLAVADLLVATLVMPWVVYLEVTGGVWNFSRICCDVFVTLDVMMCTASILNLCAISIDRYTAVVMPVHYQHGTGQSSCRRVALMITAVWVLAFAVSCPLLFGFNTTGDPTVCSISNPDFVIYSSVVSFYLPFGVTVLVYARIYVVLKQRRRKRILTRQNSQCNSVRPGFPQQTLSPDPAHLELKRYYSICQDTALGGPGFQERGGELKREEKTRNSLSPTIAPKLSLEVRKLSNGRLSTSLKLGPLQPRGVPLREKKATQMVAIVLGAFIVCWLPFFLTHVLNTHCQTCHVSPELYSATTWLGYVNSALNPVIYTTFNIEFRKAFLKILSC

Take `CCCN(CCCCc1cn(-c2ccc(C(=O)NCCCNC(=O)Cc3ccc4c(c3)C(C)(C)C3=C5C=C6C7=[N+](CCC6OC5CCN34)c3ccc(S(=O)(=O)[O-])cc3C7(C)C)cc2)nn1)C1Cc2ccccc2C1` (centres unmarked) [10b]: the figures for the Kd on secNluc-D3R [1] (setting [3]) and on secNluc-D3R [2] were 12100 ± 1700 pM and 11300 ± 1600 pM, respectively.
In the case of `CCCN(CCCCc1cn(-c2ccc(CNC(=O)c3ccc(-c4c5ccc(=NCC(F)(F)F)cc-5oc5cc(NCC(F)(F)F)ccc45)c(C(=O)O)c3)cc2)nn1)C1Cc2ccccc2C1` [10a], the Kd on secNluc-D3R [1] (live HEK293T cells expressing secNluc-D3R; KD ± SEM; read-out: KD NanoBRET saturation) was found to be 720 ± 70 pM; at secNluc-D3R [2] it was 900 ± 140 pM.
With `CCCN(CCCCc1cn(-c2ccc(C(=O)NCCCNC(=O)c3ccc(-c4c5ccc(=N)c(S(=O)(=O)O)c-5oc5c(S(=O)(=O)O)c(N)ccc45)c(C(=O)O)c3)cc2)nn1)C1Cc2ccccc2C1` [10c], the Kd at secNluc-D3R [1] (setting [3]) amounted to 720 ± 80 pM.
